A word on the melting point: it is the temperature of the solid-liquid transition. As to `CN(C(=S)N(C)c1c([S+]([O-])C(F)(F)F)c(C#N)nn1-c1c(Cl)cc(C(F)(F)F)cc1Cl)c1c([S+]([O-])C(F)(F)F)c(C#N)nn1-c1c(Cl)cc(C(F)(F)F)cc1Cl` (stereo not shown) [Compound 01-05, N,N′-Bis[3-cyano-1-(2,6-dichloro-4-trifluoromethylphenyl)-4-trifluoromethylsulfinylpyrazol-5-yl]-N,N′-dimethylthiourea], the melting point was 118 °C.

The values are drawn from patent US7662961B2, “N-phenylpyrazole derivatives as pesticides” (Merial Limited, priority 2004, dated 2010).
